“Also recorded” adds a separate entry of the source. Where two headings read alike, the source gives them in different places.
Columns and labels:
[1] = biological target: T1, F1F0 ATP hydrolase (Bos taurus, UniProt P00829+P19483); test: NADH-linked sub-mitochondrial (SMP) assay of F1F0 ATP hydrolysis; type: biochemical, bovine; settings: NADH-linked and NADPH-linked SMP assays [5-6]
T1 construct: in NADH-linked and NADPH-linked sub-mitochondrial (SMP) assays respectively; host or cells: sub-mitochondrial particles (SMPs)
Description: For example, by separately assaying (in space and/or time) the compounds's effect upon ATP synthesis and ATP hydrolysis by ATP synthase (in its entirety or, less preferably, a component part of it). Then comparing these assay results. The greater the inhibition of reverse vs. forward mode, the more preferred this compound is for anti-cancer use. A further method is by screening/seeking compounds that inhibit ATP hydrolysis more than synthesis in submitochondrial particles (SMPs). ATP hydrolysis can be assayed by (non-limiting example) a spectroscopic assay for NADH fluorescence that incubates the SMPs with pyruvate kinase and lactate dehydrogenase enzymes (assay well-known to those of the art). ATP synthesis can be assayed by (non-limiting example) a spectroscopic assay for NADPH fluorescence that incubates the SMPs with hexokinase and glucose-6-phosphate dehydrogenase enzymes (assay well-known to those of the art). These assays are reported in any one of [5, 7, 8, 11, 12, 13, 36], and/or as referenced therein, all of which are herein incorporated in their entirety.
Compounds from, selected as specific anti-cancer therapeutics by the invention of this disclosure, selected because they inhibit the reverse, more than the forward, mode of ATP synthase. EC50 and IC50 used interchangeably. […]

[2] = biological target: T1, F1F0 ATP hydrolase; settings: cited from earlier work
[3] = rats, cited from earlier work
[4] = tested on: NCI-60 cancer cell lines; test: NCI-60 one-dose in vitro assay; type: cell-based, human
Description: FIGS. 1, 2, 3, 4, 5, 6 show results from the NCI-60 one-dose in vitro assay at the Developmental Therapeutics Program (DTP), at the National Cancer Institute (NCI, Bethesda, MD, USA). Its protocol is well known to those of the art, and it tests the effect, if any, of a test compound on the growth/survivability of a cancer cell line as compared to the no compound control. […] However, a constant is that this 59 always has representative cell lines from leukemia, melanoma and cancers of the lung, colon, brain, ovary, breast, prostate and kidney. In a one-dose NCI compound test report, NCI report a number for each cell line, which they call “Growth Percent”, which is its growth relative to the no-compound control, and relative to the time zero number of cells. This reported parameter allows detection of both growth inhibition (values between 0 and 100) and lethality (values less than 0). For example, an NCI “Growth Percent” value of 100 means no growth inhibition. Value of 40 means 60% growth inhibition. Value of 0 means no net growth over the course of the experiment. Value of −40 means 60% lethality. Value of −100 means all cells are dead. I don't present NCI one-dose data in this original format. Instead, if the NCI “Growth Percent” value for a cell is positive, it is manipulated: [100 minus this original NCI-60 “Growth Percent” data point], to yield the percentage “Growth Inhibition”. If the original NCI “Growth Percent” value for a cell is negative, it is made positive to be the percentage of original cancer cells (at time zero) killed: “Percentage Killed” {and in these cases, of course, all growth has been inhibited, so percentage “Growth Inhibition” is then specified to be 100% for this cancer cell line}. In my one-dose figures, “Growth Inhibition” (0-100%) is presented on the x-axis and, if applicable, “Percentage Killed” (0-100%) further along on the x-axis. The latter is applicable when there is not just cancer growth inhibition but a reduction in the number of cancer cells from the start time i.e. when the compound is not merely slowing cancer growth, but is actively reducing the number of cancer cells from the starting number. In cases where there is only growth inhibition, only “Growth inhibition” is presented on the x-axis.

[5] = tested on: NCI-60 cancer cell lines; test: NCI-60 five-dose in vitro assay; type: cell-based, human; settings: mean of all 59 cell lines
Description: The compounds of this invention act by a distinctly different mechanism, upon cancer cells, than oligomycin. […] The degree of (dis)similarity can be measured using the COMPARE algorithm, which employs a Pearson correlation coefficient. […] This mechanistic distinction is vital because polyketide F1F0 ATP synthase inhibitors are poisonous to normal cells, which means they fail in cancer xenograft mouse experiments and are without clinical utility.
Results from the NCI-60 five-dose in vitro assay at the Developmental Therapeutics Program (DTP), at the National Cancer Institute (NCI, Bethesda, MD, USA). In this assay, which is well known to those of the art, a compound is tested, in vitro, against 59 different cancer cell lines, sourced from 9 different tissue types, across 5 different concentrations. On the y-axis is the aforementioned “Growth Percentage” parameter used by NCI, which is growth relative to the no-compound control, and relative to the time zero number of cells. This parameter allows detection of both growth inhibition (values between 0 and 100) and lethality (values less than 0). […] Each cancer cell line has a GI50 value and the “mean GI50” of all 59 cell lines can be calculated.

[6] = tested on: ex vivo rat heart; settings: 10 μM [11]; cited from earlier work
[7] = biological target: T2, F1F0-ATP hydrolysis (Homo sapiens, UniProt P06576+P25705); settings: cited from earlier work
T2 construct: BTB06584 potency information (isn't an EC50) is from a whole cell study [13]

[8] = tested on: mouse cortical neurons; settings: 100 μM [13]; cited from earlier work
[9] = biological target: T3, F1F0-ATP synthesis (Homo sapiens, UniProt P06576+P25705); settings: [13]; cited from earlier work
T3 construct: BTB06584 potency information (isn't an EC50) is from a whole cell study [13]

[10] = tested on: HL-1 cardiac muscle cell line; settings: 3 μM; HL-1 cells; data from [12]; cited from earlier work
[11] = tested on: xenograft mouse models of cancer; settings: data in [16]; cited from earlier work
[12] = cited from earlier work
[13] = Formula (I) examples, SMP data from [5], read-out: EC50 F1F0 ATP hydrolase

N#Cc1cccc(C(=O)/N=C(\Nc2ccc(Cl)cc2)N[C@H](Cn2ccnc2)c2ccc(Cl)cc2Cl)c1
[EC50 F1F0 ATP synthesis/EC50 F1F0 ATP hydrolysis] ratio [1]: > 5,556 | EC50 ([2]; Best Mode structure, SMP assay [5-6], read-out: EC50 against F1F0ATP hydrolysis): 18 nM | Cmax [3]: 21 µM | volume of distribution [3]: 2.37 L/kg | half-life in blood ([3]; intravenously applied drug): 2.1 h | orally bioavailable ([3]; polyethyleneglycol:water:ethanol, 1:1:1): 47%

N#CN=C(Nc1cccc(Cl)c1Cl)NC(Cn1ccnc1)c1ccc(Cl)cc1Cl (centres unmarked) [2,3-Cl2/CN]
EC50 [2, 13]: 2490 nM

N#CN=C(Nc1cccc(Cl)c1)NC(Cn1ccnc1)c1ccc(Cl)cc1Cl (centres unmarked) [3-CL/CN]
EC50 [2, 13]: 9170 nM

CC(=O)Nc1ccc(S(=O)(=O)N2Cc3ccccc3N(Cc3cnc[nH]3)C(CCc3ccccc3)C2)cc1 (centres unmarked) [4-(AcNH)—Ph/SO2/5-yl]
EC50 ([2]; Formula (II) examples, SMP data from [8], read-out: EC50F1F0ATP hydrolase): 2980 nM

N#Cc1ccc(C(=O)N=C(Nc2ccc(Cl)cc2)NC(Cn2ccnc2)c2ccc(Cl)cc2Cl)cc1 (centres unmarked) [4-Cl/C(═O)4-CN—Ph]
EC50 [2, 13]: 280 nM

CCC(=O)N=C(Nc1ccc(Cl)cc1)NC(Cn1ccnc1)c1ccc(Cl)cc1Cl (centres unmarked) [4-Cl/C(═O)Et]
EC50 [2, 13]: 2270 nM

N#CN=C(Nc1ccc(Cl)cc1)NC(Cn1ccnc1)c1ccc(Cl)cc1Cl (centres unmarked) [4-Cl/CN]
EC50 [2, 13]: 8800 nM

N#Cc1cccc(C(=O)/N=C(\Nc2ccc(Cl)cc2)N[C@@H](Cn2ccnc2)c2ccc(Cl)cc2Cl)c1 [6a]
anti-cancer activity (NCI one-dose assay) ([4]; 10 μM): exerted anti-cancer activity | inhibits F1F0-ATP hydrolysis ([2]; stereoisomers of 19a [5-6]): not

N#Cc1cccc(C(=O)/N=C(\Nc2ccc(Cl)cc2)NC(Cn2ccnc2)c2ccc(Cl)cc2Cl)c1 (centres unmarked) [19a]
anti-cancer activity (NCI one-dose assay) ([4]; 10 μM): more anti-cancer activity than BMS-199264

CC1(C)Oc2ccc(S(=O)(=O)N3CCCCC3)cc2[C@@H](N(Cc2ncc[nH]2)c2ccc(Cl)cc2)[C@@H]1O.Cl [BMS-199264 hydrochloride]
anti-cancer activity (NCI one-dose assay) ([4]; 10 μM): Anti-cancer activity | anti-cancer activity (NCI one-dose assay) ([4]; 100 μM): Anti-cancer activity | GI50 [5]: 3900 nM

CC1(C)Oc2ccc(S(=O)(=O)N3CCCCC3)cc2[C@@H](N(Cc2ncc[nH]2)c2ccc(Cl)cc2)[C@@H]1O [BMS-199264]
anti-cancer activity (NCI one-dose assay) ([4]; 10 μM): exerts anti-cancer activity | harm to normal cells (ex vivo rat heart) [6]: does not harm ex vivo rat heart; also recorded: doesn't harm normal cells

O=C(Oc1cc(S(=O)(=O)c2ccccc2)ccc1[N+](=O)O)c1ccc(Cl)cc1 [BTB06584]
anti-cancer activity (NCI one-dose assay) ([4]; 10 μM): No anti-cancer activity and none | anti-cancer activity (NCI one-dose assay) ([4]; 100 μM): exerts anti-cancer activity | inhibitory potency for F1F0-ATP hydrolysis ([7]; 10 μM [13]): none | concentration required for inhibiting F1F0-ATP hydrolysis ([7]; whole cell study [13]): ≥ 100 µM | harm to normal cells (mouse cortical neurons) [8]: isn't harmful to normal cells | inhibition of F1F0-ATP synthesis [9]: not inhibiting F1F0-ATP synthesis

CC[C@H]1/C=C/C=C/C[C@@H](C)[C@H](O)[C@@](C)(O)C(=O)[C@@H](C)[C@H](O)[C@@H](C)C(=O)[C@@H](C)[C@H](O)[C@@H](C)/C=C/C(=O)O[C@@H]2[C@H](C)[C@H](CC1)O[C@@]1(O[C@@H](C[C@@H](C)O)[C@@H](C)CC1=O)[C@H]2C [Oligomycin B]
O2 consumption change [10]: −40%

CC[C@H](O)C[C@@H]1O[C@]2(CC[C@H]1C)C[C@@H]1OC(=O)/C=C/[C@](C)(O)[C@@H](O)[C@H](C)[C@@H](O)[C@@H](O[C@H]3C[C@@H](OC)[C@@H](O)[C@@H](C)O3)[C@H](O)[C@](C)(O)CCC/C=C\[C@H]3C[C@H](C)CO[C@@]3(O)C[C@H](O2)[C@H]1C [cytovaricin]
efficacy in xenograft mouse models of cancer [11]: don't work

CC[C@H]1/C=C/C=C/C[C@@H](C)[C@H](O)[C@@](C)(O)C(=O)[C@@H](C)[C@H](O)[C@@H](C)C(=O)[C@@H](C)[C@H](O)[C@@H](C)/C=C/C(=O)O[C@@H]2[C@H](C)[C@H](CC1)O[C@]1(CC[C@H](C)[C@H](C[C@@H](C)O)O1)[C@H]2C [oligomycin]
inhibition of F1F0 ATP hydrolysis versus F1F0 ATP synthesis ([2]; SMP assays [11]): inhibits F1F0 ATP hydrolysis less than F1F0 ATP synthesis | time within which healthy rats are killed ([12]; 1 mg/kg, n=10): ≤ 48 h | LD33 ([12]; rats): 0.5 mg/kg

CC[C@@H](O)C[C@H]1CCC[C@@]2(C[C@@H]3OC(=O)/C=C/[C@@](C)(O)[C@@H](O)[C@H](C)[C@@H](O)[C@H](O[C@H]4CC[C@H](N(C)C)[C@H](C)O4)[C@@H](O)[C@](C)(O)CCCCC/C=C/[C@@H]4CC(C)(C)O[C@@]4(O)C[C@H](O2)[C@H]3C)O1 [ossamycin]
efficacy in xenograft mouse models of cancer [11]: don't work

From patent US12410143B2, “Therapeutic inhibitors of the reverse mode of ATP synthase” (priority 2017, dated 2025)
